In series [1] the test system is phosphodiesterase III (PDE3). Particulars: Gristwood et al. 1992; Frodsham et al. 1992; cited from earlier work.
The nature of series [2]: Solubility. Format: physicochemical. The source says:
Thus, while the present invention is not limited by the form of oral administration, aqueous and organic solution of an enantiomer of flosequinan for oral administration is contemplated. Likewise, an enantiomer of flosequinan can be associated with a solid pharmaceutical carrier for solid oral administration (i.e., in pill form).

In series [3] the test system is PDE4 partially purified from human U-937 pronocytic cells. The experiment in a line: PDE4 enzyme inhibition assay (Example 3). In kind it is biochemical. Particulars: 100 μM. The protocol:
(§1) In this example, a racemic mixture of flosequinan and the (+) and (−) enantiomers of flosequinan were subjected to biochemical enzyme assays to determine their respective percent inhibition of a variety of phosphodiesterases (PDE1-PDE6). The reaction conditions for each PDE assay were as follows.
(§2) PDE4 partially purified from human U-937 pronocytic cells was used. A racemic mixture of flosequinan, and each enantiomer of flosequinan, all at a molar concentration of 100 μM, were independently incubated with 20 μg PDE4 enzyme and 1 μM cAMP containing 0.01 μM [^3H]cAMP in Tris buffer pH 7.5 for 20 minutes at 30° C. The reaction was terminated by boiling for 2 minutes, and the resulting AMP was converted to adenosine by addition of 10 mg/ml snake venom nucleotidase and further incubation at 30° C. for 10 minutes. Unhydrolyzed cAMP was bound to AGI-X2 resin, and the remaining [^3H]adenosine in the aqueous phase was quantitated by scintillation counting.

For series [4], the target named is T1, PDE6 partially purified from bovine retinal rod and activated by trypsin (Bos taurus, UniProt P11541+P23439).
T1 construct: from tissue; host or cells: bovine retinal rod
T1 sequence (P11541 2-856 limits assumed): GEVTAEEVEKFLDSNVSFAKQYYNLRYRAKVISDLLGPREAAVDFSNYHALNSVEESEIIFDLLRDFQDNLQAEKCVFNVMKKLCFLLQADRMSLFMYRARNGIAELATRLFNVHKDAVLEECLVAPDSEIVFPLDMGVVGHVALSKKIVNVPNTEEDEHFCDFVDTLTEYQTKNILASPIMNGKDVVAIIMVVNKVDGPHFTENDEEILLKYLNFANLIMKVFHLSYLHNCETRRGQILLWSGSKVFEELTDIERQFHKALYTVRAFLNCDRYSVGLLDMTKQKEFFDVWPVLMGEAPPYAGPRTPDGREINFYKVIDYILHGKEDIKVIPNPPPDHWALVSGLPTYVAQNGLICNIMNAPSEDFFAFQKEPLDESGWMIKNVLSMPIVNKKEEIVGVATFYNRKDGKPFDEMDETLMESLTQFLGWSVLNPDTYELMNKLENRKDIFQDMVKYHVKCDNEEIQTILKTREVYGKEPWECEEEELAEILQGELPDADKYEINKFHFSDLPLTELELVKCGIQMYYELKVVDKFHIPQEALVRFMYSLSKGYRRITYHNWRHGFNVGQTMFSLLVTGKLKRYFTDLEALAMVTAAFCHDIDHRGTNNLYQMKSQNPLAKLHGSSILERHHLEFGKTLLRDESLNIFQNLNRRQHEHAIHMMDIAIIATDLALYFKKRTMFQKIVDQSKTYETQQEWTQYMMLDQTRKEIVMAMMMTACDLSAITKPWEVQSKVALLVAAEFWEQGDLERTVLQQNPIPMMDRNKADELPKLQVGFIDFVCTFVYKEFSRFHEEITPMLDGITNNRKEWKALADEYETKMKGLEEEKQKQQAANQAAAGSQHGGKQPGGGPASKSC
T1 sequence (P23439 2-850 limits assumed): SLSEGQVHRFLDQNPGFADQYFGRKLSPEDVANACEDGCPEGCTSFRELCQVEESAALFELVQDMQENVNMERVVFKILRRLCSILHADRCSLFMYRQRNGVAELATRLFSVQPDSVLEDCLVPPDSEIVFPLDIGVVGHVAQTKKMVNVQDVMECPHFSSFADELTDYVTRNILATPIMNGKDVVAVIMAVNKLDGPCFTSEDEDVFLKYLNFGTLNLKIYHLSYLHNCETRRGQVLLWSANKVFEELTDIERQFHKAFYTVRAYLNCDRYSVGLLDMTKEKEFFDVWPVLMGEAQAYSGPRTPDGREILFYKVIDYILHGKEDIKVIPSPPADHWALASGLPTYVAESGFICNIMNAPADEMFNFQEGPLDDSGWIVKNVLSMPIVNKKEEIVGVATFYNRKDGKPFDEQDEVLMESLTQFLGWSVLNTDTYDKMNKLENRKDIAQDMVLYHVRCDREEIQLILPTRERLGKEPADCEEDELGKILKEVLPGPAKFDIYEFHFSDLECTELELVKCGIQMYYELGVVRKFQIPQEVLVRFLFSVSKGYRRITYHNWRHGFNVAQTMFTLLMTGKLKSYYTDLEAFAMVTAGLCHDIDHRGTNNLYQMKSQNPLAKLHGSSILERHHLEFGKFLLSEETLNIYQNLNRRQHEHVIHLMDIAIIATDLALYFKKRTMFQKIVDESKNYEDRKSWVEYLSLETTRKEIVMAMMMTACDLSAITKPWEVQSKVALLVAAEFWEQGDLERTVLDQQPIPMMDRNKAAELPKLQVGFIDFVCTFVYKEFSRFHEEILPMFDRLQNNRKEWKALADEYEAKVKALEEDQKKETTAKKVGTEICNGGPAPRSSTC
In words: PDE6 inhibition assay, Viagra vs racemic flosequinan (Example 1). Format: biochemical. The protocol: (§3) PDE6 partially purified from bovine retinal rod and activated by trypsin was used. In four separate reactions, Viagra at molar concentrations of 0.3 μM, 1.0 μM, and 3.0 μM, and a 100 μM racemic mixture of flosequinan were incubated with 0.2 μg/ml active PDE6 and 100 μM cGMP containing 0.1 μM [^3H]cGMP in Tris buffer pH 7.5 for 20 minutes at 30° C. Each reaction was terminated by raising the temperature to 100° C. for 2 minutes. The resulting GMP was converted to guanosine by addition of 10 mg/ml snake venom nucleotidase and further incubated at 30° C. for 10 minutes. Unhydrolyzed cGMP was bound to AGI-X2 resin, and [^3H]guanosine remaining in the aqueous phase was quantitated by scintillation counting.

Series [5] addresses T2, PDE3 partially purified from human platelets (Homo sapiens, UniProt Q14432).
T2 construct: PDE3 partially purified from human platelets was used; from tissue; host or cells: human platelets
The experiment in a line: PDE3 enzyme inhibition assay (Example 3). Format: biochemical. Particulars: for % Inhibition of PDE3: 100 μM. The protocol:
as §1
as §2, with “PDE3 partially” for “PDE4 partially”, “human platelets” for “human U-937 pronocytic cells”, “with 13” for “with 20”, “μg PDE3” for “μg PDE4”

Series [6] addresses T3, PDE2 partially purified from human platelets (Homo sapiens, UniProt O00408).
T3 construct: PDE2 partially purified from human platelets was used; from tissue; host or cells: human platelets
The experiment in a line: PDE2 enzyme inhibition assay (Example 3). Format: biochemical. Particulars: 100 μM. The protocol: as §1
as §2, with “PDE2 partially” for “PDE4 partially”, “human platelets” for “human U-937 pronocytic cells”, “with 23” for “with 20”, “μg PDE2 enzyme, 25” for “μg PDE4 enzyme and 1”, “containing 0.05” for “containing 0.01”

In series [7] the target is T4, PDE1 partially purified from bovine heart (Bos taurus, UniProt P14100).
T4 construct: PDE1 partially purified from bovine heart was used; from tissue; host or cells: bovine heart
In words: PDE1 enzyme inhibition assay (Example 3). Particulars: 100 μM. Format: biochemical. The protocol: as §1
as §2, with “PDE1 partially” for “PDE4 partially”, “from bovine heart” for “from human U-937 pronocytic cells”, “with 13” for “with 20”, “μg PDE1 enzyme, 1.0” for “μg PDE4 enzyme and 1 μM cAMP containing 0.01”, “[^3H]cAMP and CaCl2/calmodulin” for “[^3H]cAMP”

The target in series [8] is T1, PDE6 partially purified from bovine retinal rod and activated by trypsin. The experiment in a line: PDE6 enzyme inhibition assay (Example 3). Format: biochemical. Particulars: 100 μM. The protocol: as §1
as §3, with “A” for “In four separate reactions, Viagra at molar concentrations of 0.3 μM, 1.0 μM, and 3.0 μM, and a 100 μM”, “flosequinan, and each enantiomer of flosequinan, all at a molar concentration of 100 μM,” for “flosequinan”, “were independently” for “were”, “boiling” for “raising the temperature to 100° C.”, “nucleotidase,” for “nucleotidase”

The target of series [9] is T5, PDE5 partially purified from human platelets (Homo sapiens, UniProt O76074).
T5 construct: PDE5 partially purified from human platelets was used; from tissue; host or cells: human platelets
The experiment in a line: PDE5 enzyme inhibition assay (Example 3). Particulars: 100 μM. Format: biochemical. The protocol: as §1
PDE5 partially purified from human platelets was used. A racemic mixture of flosequinan, and each enantiomer of flosequinan, all at a molar concentration of 100 μM, were independently incubated with 120 μg PDE5 enzyme and 1 μM cGMP containing 0.01 μM [^3H]cGMP in Tris buffer pH 7.5 for 20 minutes at 30° C. The reaction was terminated by boiling for 2 minutes, and the resulting GMP was converted to guanosine by addition of 10 mg/ml snake venom nucleotidase and further incubation at 30° C. for 10 minutes. Unhydrolyzed cGMP was bound to AGI-X2 resin, and the remaining [^3H]guanosine in the aqueous phase was quantitated by scintillation counting.

The structures appear in SMILES notation. “Also recorded” adds a separate entry of the source. Some results are limits rather than exact numbers.

Usually melting point stands for the temperature of the solid-liquid transition.

T2 sequence (Q14432 whole entry): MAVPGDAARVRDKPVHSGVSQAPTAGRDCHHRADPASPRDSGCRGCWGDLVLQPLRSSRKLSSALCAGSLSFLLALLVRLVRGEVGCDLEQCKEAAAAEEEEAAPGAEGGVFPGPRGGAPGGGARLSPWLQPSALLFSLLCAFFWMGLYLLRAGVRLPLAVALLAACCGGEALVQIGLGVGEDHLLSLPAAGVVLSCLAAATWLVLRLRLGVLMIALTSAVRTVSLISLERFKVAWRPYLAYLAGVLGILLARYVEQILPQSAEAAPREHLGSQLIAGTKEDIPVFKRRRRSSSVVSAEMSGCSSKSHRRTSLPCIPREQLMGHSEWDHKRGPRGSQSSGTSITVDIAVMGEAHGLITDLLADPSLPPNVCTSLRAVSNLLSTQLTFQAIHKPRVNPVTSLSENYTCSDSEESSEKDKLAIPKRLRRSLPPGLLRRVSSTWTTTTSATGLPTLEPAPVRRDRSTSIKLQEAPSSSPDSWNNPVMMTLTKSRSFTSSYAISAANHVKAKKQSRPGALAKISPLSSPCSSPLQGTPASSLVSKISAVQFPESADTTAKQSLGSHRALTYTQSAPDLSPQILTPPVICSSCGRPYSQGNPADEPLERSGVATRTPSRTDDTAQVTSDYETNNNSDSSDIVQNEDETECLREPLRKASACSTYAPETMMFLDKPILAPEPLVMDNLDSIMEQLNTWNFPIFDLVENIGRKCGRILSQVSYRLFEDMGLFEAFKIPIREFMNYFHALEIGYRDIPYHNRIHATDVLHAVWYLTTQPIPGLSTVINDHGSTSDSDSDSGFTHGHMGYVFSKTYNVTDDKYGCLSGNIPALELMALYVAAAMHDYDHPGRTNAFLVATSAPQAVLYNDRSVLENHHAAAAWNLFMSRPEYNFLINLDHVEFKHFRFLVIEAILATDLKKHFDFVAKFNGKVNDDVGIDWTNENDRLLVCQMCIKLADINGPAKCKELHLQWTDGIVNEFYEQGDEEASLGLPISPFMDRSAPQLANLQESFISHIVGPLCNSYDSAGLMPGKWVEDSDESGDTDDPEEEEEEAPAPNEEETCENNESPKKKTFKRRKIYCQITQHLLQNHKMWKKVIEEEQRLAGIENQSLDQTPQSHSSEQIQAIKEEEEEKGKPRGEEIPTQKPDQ
T3 sequence (O00408 whole entry): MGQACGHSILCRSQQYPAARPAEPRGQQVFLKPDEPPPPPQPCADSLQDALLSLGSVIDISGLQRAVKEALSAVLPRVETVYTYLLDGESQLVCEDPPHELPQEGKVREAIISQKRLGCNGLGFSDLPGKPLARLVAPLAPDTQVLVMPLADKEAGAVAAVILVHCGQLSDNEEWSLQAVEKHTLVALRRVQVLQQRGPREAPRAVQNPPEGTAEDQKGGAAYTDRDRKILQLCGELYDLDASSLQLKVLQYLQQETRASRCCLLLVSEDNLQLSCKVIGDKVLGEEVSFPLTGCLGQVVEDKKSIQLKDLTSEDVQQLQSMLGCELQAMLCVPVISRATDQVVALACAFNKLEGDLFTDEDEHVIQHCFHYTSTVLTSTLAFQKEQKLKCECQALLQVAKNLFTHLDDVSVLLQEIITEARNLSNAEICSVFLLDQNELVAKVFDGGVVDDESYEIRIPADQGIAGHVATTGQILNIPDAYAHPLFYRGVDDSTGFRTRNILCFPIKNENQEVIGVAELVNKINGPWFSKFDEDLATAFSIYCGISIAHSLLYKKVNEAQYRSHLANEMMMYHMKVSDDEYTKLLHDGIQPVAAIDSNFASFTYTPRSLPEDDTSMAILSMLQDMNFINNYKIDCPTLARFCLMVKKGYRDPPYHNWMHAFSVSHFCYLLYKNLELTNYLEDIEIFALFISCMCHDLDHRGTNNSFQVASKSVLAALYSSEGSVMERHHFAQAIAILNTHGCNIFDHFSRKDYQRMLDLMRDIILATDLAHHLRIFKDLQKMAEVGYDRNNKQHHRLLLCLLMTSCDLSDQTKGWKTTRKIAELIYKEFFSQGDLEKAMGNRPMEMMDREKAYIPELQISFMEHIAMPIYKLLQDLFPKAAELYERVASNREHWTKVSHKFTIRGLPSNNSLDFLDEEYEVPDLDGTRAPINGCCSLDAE

Regarding `Cn1cc([S+](C)[O-])c(=O)c2ccc(F)cc21` (racemic) [Flosequinan, 7-fluoro-1-methyl-3-(methylsulphinyl)-4(1H)-quinolone], in series [1], the reported phosphodiesterase selectivity result was “selective inhibitor of phosphodiesterase III (PDE3)”. The “solubility in organic solvents” value in series [2] (organic solvents) is on record as “soluble in many organic solvents”. In series [2] (water), the solubility in water result is given as “water soluble”. Further, the “% Inhibition of PDE4” value in series [3] is 24%. Moreover, in series [4] (100 μM vs sildenafil citrate 1 μM (100-fold lower molar concentration)), the “inhibition of PDE6 compared to sildenafil citrate” value is recorded as “approximately half as much inhibition of PDE6”. Also, in [4] (vs Viagra 0.3 μM), the “times more compound on a molar basis than Viagra for around 50% PDE6 inhibition” value is “more than 300 times”.
For `Cn1cc([S@@+](C)[O-])c(=O)c2ccc(F)cc21` [(+)−flosequinan], the “% Inhibition of PDE3” value in series [5] turned out to be 32%. The “PDE3 inhibition compared to racemic mixture of flosequinan” value in [5] (same molar concentration) is given as “greater inhibition of PDE3”. Also, the “PDE3 inhibition compared to the (−) enantiomer of flosequinan” value in series [5] (same molar concentration, listed as (+) enantiomer of flosequinan) is “more PDE1 and PDE3 inhibitory activity; also recorded: eight-fold increase”. For the same compound, the “% Inhibition of PDE2” value in series [6] is given as 18%. Moreover, in [7], the “% Inhibition of PDE1” value is listed as 28%; the “PDE1 inhibitory activity compared with the (−) enantiomer of flosequinan” value is “more PDE1 and PDE3 inhibitory activity”. In addition, in series [8], the “% Inhibition of PDE6” value is on record as 22%. Further, in series [3], the “% Inhibition of PDE4” value turned out to be 6%. In series [9], the “% Inhibition of PDE5” value is reported as 17%.
As to `Cn1cc([S+](C)[O-])c(=O)c2ccc(F)cc21` (stereo not drawn) [(−)−flosequinan], the “% Inhibition of PDE3” value in series [5] is 5%. For the same compound, the “% Inhibition of PDE2” value in series [6] is on record as 13%. In addition, in series [7], the “% Inhibition of PDE1” value was found to be 11%. Moreover, the “% Inhibition of PDE6” value in series [8] is reported as 21%. The “% Inhibition of PDE4” value in [3] is recorded as 1%. In addition, in [9], the “% Inhibition of PDE5” value is listed as 10%.
Consider `Cn1cc(C(N)=O)c(=O)c2sccc21` [Example 4 b, 4-methyl-7-oxo-4,7-dihydrothieno[3,2-b]pyridine-6-carboxamide], for which the melting point lay in the range of 255 to 258 °C.
Consider `Cn1cc(C(N)=O)c(=O)c2ccc(Cl)cc21` [Example 4 e, 7-chloro-1-methyl-4-oxo-1,4-dihydroquinoline-3-carboxamide], for which the melting point is > 240 °C.
